The values that follow come from a melting point compilation (Tetko et al.; mined from patent text by program, amines drawn as free bases though some values may be those of a salt).

Consider `COc1ccc(-c2cc3cc(F)c(F)cc3[nH]2)cc1NC(=S)NCCO`, for which the melting point (in general, the temperature of the solid-liquid transition) is 191 to 193 °C. With `COc1cc(NC(=S)C2(C)CCc3c(C)c(O)c(C)c(C)c3O2)cc(OC)c1OC` (centres undefined) the figure was 147 to 148 °C; with `COc1ccc(C(=O)Nc2c(Cl)cncc2Cl)c2c1OCC2CC(=O)OCc1ccccc1` (centres undefined), 198 to 205 °C; with `CCC(=O)c1cc(-c2cccc(OCc3ccc(COC(=O)c4ccccc4)c(COC(=O)c4ccccc4)c3)c2)cs1`, 117 °C.

For `COC(=O)CCSSN=C1C(=O)N(C)C(=O)N1c1ccccc1F`, the melting point was 81 to 84.5 °C. Then `CCOC(=O)[C@H](Cc1ccc(OC)cc1)NC(=O)C1(NC(=O)OC(C)(C)C)CCCC1`, with 143 to 146 °C; and `c1cc2cc(-c3cn([C@H]4CN5CCC4CC5)nn3)ccc2o1`, with 178 °C. With `CCCCCCCCCCCCCCc1ccc(C(=O)O)[nH]1` the figure was 68 to 69 °C. `CCCCCCCCCCC[C@H](O)C[C@@H]1OC(=O)[C@H]1CCCCCC` yielded a melting point of 61 to 62 °C.

`O=C1NCCC[C@@H]1NS(=O)(=O)c1ccccc1C(F)(F)F` returned a melting point of 161 to 163 °C. As for `CCCCCCCCCCCCn1nnc(NC(=O)CS(=O)(=O)Nc2c(C(C)C)cccc2C(C)C)n1`, the melting point lay in the range of 138 to 140 °C.

In turn, `CC(=O)OCCSCn1cnc2c(Cl)ncnc21` returned a melting point of 82 to 87 °C.

For `Cc1c(Br)c(Br)c(C)c(Br)c1Br`, the melting point fell in the range of 247 to 249 °C. For `CCOC(=O)c1cnc2cc(-c3ccccc3)sc2c1O`, the melting point was 286 to 289 °C. With `CC1(C)C(=NO)C(c2ccccc2)=C1c1ccc(S(C)(=O)=O)cc1` the figure was 217 to 220 °C; with `CC(C)NCC(O)COc1cccc(-c2nc(C(F)(F)F)c[nH]2)c1` (centres undefined), 162 to 164 °C; with `CCCOC(=O)C1=C(C)NC(C=O)=C(C(=O)OC)C1c1ccccc1C#N` (centres undefined), 138 to 141 °C.

`COCCn1cc2c(n1)c(N)nc1ccccc12` registered a melting point of 230 to 231 °C. Then `CN1CCC[C@H](OCc2cc(C(F)(F)F)cc(C(F)(F)F)c2)[C@@H]1c1ccccc1`, with 40 to 42 °C; and `CN1CCC(C(=O)Nc2cccc(-c3ccnc4c(C(=O)c5cccs5)cnn34)c2)CC1`, with 236 °C; and `O=C1NC(=O)C(Cc2ccc(OCc3cn4ccccc4n3)cc2)S1` (centres undefined), with 197 to 202 °C. Molecule `COC(=O)c1ccc2c(c1)N(C(=O)c1ccc(C3CCCCC3)cc1)Cc1cccn1C2` had a melting point of 174 to 176 °C. Then `Cc1oc(-c2cccc(CCc3ccccc3)c2)nc1CCOc1ccc(OC(C)(C)C(=O)O)cc1`, with 124 to 125 °C; and `CCOC(=O)CC1c2cccn2S(=O)(=O)c2ccccc2N1C(=O)c1ccccc1` (centres undefined), with 178 to 181 °C; and `CCn1ncc2c1ncc1c(=O)n(CCN3CCOCC3)c3cc(C)nn3c12`, with 140 to 141 °C. With `CCOC(=O)c1ccc(NC(=O)c2ccc(F)cc2)cc1` the figure was 172 to 174 °C. Then `Nc1c(CC(=O)O)cccc1S(=O)(=O)c1ccc(Cl)cc1`, with 139 to 141 °C; and `Cn1cc(-c2cc(-c3cnc4[nH]ccc4c3)ccn2)n(-c2cccc(C#N)c2)c1=O`, with 265 °C; and `CS(=O)(=O)c1ccc(-c2cc(CCCO)nn2CC2CCCCC2)cc1`, with 94 to 95 °C. Molecule `OCc1cnoc1-c1ccc(Cl)c(F)c1` had a melting point of 87 to 88 °C.

With `O=S(=O)(CCl)c1ccc(O)c(Cl)c1`, the melting point stood at 108 °C.

Turning to `C=CCNc1cccnc1S(N)(=O)=O`, the melting point lay in the range of 134 to 135 °C. `CCOC(=O)C1=C(C)N(C)C(C)=C(C(=O)OCC)C1c1ccccc1/C=C/C(=O)OC(C)(C)C` yielded a melting point of 149 to 151 °C. With `CCN1CCN(Cc2ccc(-c3cc4c(NCc5cccc(Cl)c5)ncnc4[nH]3)cc2)CC1` the figure was 241 to 243 °C. With `COc1ccc(-c2cc(CN3C(=O)c4ccccc4C3=O)c(=O)n(CC3CC3)n2)cc1F` the figure was 242 to 244 °C. `O=C(NC(O)C(F)(F)F)c1snc(Cl)c1Cl` (centres undefined) showed a melting point of 90 to 93 °C. Then `CCOC(=O)C1=C(C)NC(c2cncs2)=NC1c1ccc(F)cc1Cl` (centres undefined), with 121 to 125 °C. Then `Cc1cc(-c2c(-c3ccc(S(C)(=O)=O)cc3)cnn(-c3ccc(F)cc3)c2=O)ccc1F`, with 168 to 170 °C; and `Nc1ncnc2c1c(-c1ccc(Oc3ccccc3)cc1)cn2C1CCC2(CC1)OCCO2`, with 193 to 194 °C; and `N#Cc1c(N)[nH]c2c1COc1ccccc1-2`, with 216 to 217 °C. Consider `CCCCC#CCCOc1c(I)cc(I)cc1I`, for which the melting point is 45 to 49 °C. Take `COC(=O)c1ccc2scc(-c3ccc(SC)cc3)c2c1`: the melting point was 135 to 136 °C. With `O=C1CCc2cc(O)ccc21` the figure was 185 to 187 °C; with `CCCCCC=C1SC(=S)N(CC(=O)O)C1=O`, 136 to 140 °C; with `N#CCCNC(=O)c1cccc(-c2cccc3nn(Cc4ccc(F)cc4)cc23)c1`, 133 to 134 °C.

Molecule `Oc1c(Cl)cc(-c2cnn3c(O)ncnc23)cc1Cl` displayed a melting point greater than 300 °C. On to `Nc1nc2ccc(SSc3ccc4nc(N)[nH]c4c3)cc2[nH]1`, for which the melting point turned out to be 245 °C.

As to `CC(C)(C)NCC(O)COc1cc(Cl)ccc1-c1ccc(=S)[nH]n1` (centres undefined), the melting point lay within 195 to 198 °C. Then `Cc1sc(C2=NOC(c3cc(Cl)cc(Cl)c3)(C(F)(F)F)C2)cc1C(=O)NCC(=O)NCC#N` (centres undefined), with 158 to 161 °C; and `COc1ccc(C2CCN(C(=O)C(=O)NO)CC2)cc1OC1CCCC1`, with 124 °C. With `CN(C)C(=O)Cn1c(-c2ccc(Br)cc2)nc2cccnc21` the figure was 224 to 225 °C; with `COc1ccc(CCNCC(O)c2ccc(C)cc2)cc1OC` (centres undefined), 99 to 100 °C. With `COc1cc(C(=O)c2ccc(C(F)(F)F)cc2)ccc1O` the figure was 97 °C. As to `C#Cc1ccc(-c2ccc(-c3ccc(C#C)cc3)n2-c2ccc(C)cc2)cc1`, the melting point is 235 to 237 °C. Then `C=C[C@H](Cc1ccccc1)NC(=O)OCc1ccccc1`, with 87 to 88 °C; and `COCC(O)c1nc2c(C(F)(F)F)cccc2c(O)c1C(=O)Nc1nccs1` (centres undefined), with 216 to 218 °C. With `Cc1cc(SC2=C(O)CC(CCc3ccncc3)(C(C)C)OC2=O)c(C(C)(C)C)cc1CO` (centres undefined) the figure was 140 to 155 °C; with `Cc1ccc(C2c3c(C)c(N4C(=O)c5ccccc5C4=O)c(C)c(C)c3OC2(C)C)cc1` (centres undefined), 222 to 224 °C.

As for `C=C(COCc1ccccc1)C(O)C(NC=O)C(=O)OCC` (centres undefined), the melting point was in the range of 112 to 114 °C.

Turning to `CC(=O)Nc1nc(CCc2ccc(CN3CCNCC3)cc2)cs1`, the melting point lay in the range of 164 to 166 °C. Molecule `COc1ccccc1N1CCN(c2nc3cccc4c3n2CCC4)CC1` returned a melting point of 199 to 201 °C. With `C=C1C[C@]2(C)C(=O)CC[C@H]2[C@@H]2CCC3=CC(=O)CC[C@]3(C)[C@@H]12` the figure was 157 to 160 °C; with `CCOC(=O)C(Cc1ccc(C(F)(F)F)c(F)c1)C(=O)c1ccc(F)cc1` (centres undefined), 56 to 57 °C; with `CC(=O)NC[C@H]1CN(c2ccc(N3CCS(=O)CC3)cc2)C(=O)O1`, 185 to 186 °C. With `CN(C)C(=O)c1cc2n(n1)-c1ccc(Cl)cc1C(c1ccccc1)=NC2` the figure was 176 to 178 °C; with `COC(=O)CCCc1cc2cc(Cl)ccc2n1S(=O)(=O)c1ccc2c(c1)CCC(=O)N2`, 198 to 205 °C; with `O=C(CBr)CN1C(=O)c2ccccc2C1=O`, 139 to 141 °C. With `COC(=O)c1cc2ccccc2o1` the figure was 53.8 to 54 °C; with `COc1cc(N)c(Cl)cc1C(=O)N[C@H]1CCN(CCCNc2ncccn2)C[C@H]1OC` (relative stereo), 158 °C; with `CCOc1cc(C(C)(c2cc(OCC)c(O)c(OCC)c2)c2cc(OCC)c(O)c(OCC)c2)cc(OCC)c1O`, 78 °C. `COC(=O)CCc1cc2cc(C(F)(F)F)ccc2[nH]1` had a melting point of 106 to 108 °C. Molecule `CCC(=O)c1ccc(OC)c(OC(=O)CCl)c1` showed a melting point of 77 to 79.5 °C. `COc1ccnc(CSc2nc3cc4c(cc3[nH]2)OC(F)(F)O4)c1` came in with a melting point of 151 to 152 °C. Then `Cc1ccc(C(=O)Nc2cn(C3CCCCO3)nc2C(=O)NCCC#N)cn1` (centres undefined), with 118 to 120 °C; and `COc1ccc(S(=O)(=O)N(CC(=O)O)CC(=O)O)cc1`, with 177 to 178 °C; and `CC(C(=O)c1ccc2c(c1)CC(=O)N2)N1CCC(O)(Cc2ccccc2)CC1` (centres undefined), with 188 to 192 °C.

For the molecule `C#CCN1C(=O)c2cccc3cccc1c23`, the melting point is 183 to 186 °C. With `COC(=O)c1cc(-n2c(=O)c3c(n(C)c2=O)CCC3)ccc1Cl` the figure was 164 to 166 °C; with `CCC(=O)Nc1cc(C(=O)O)ccc1N1C(=O)CCC1(CO)CO`, 217 to 218 °C; with `O=C(c1ccccc1)c1ncc(=O)n(CC(F)(F)F)n1`, 174 to 175 °C.

Take `COc1ccc(C2(C#Cc3cccc(N)c3)CCCC(=O)C2)cc1OC1CCCC1` (centres undefined): the melting point lay within 100 to 102 °C.

With `Nc1cc(C(=O)Nc2ccc(F)cc2)ccc1OC(F)(F)F`, the melting point lay within 139 to 140 °C. Then `O=C1CCC(c2ccccc2)(c2ccccc2)[C@@H]2CN(C(=O)Cc3ccc(F)cc3)C[C@H]12` (racemic), with 210 °C; and `COC(=O)Oc1cc(N2C(=O)C3=C(CCCC3)C2=O)c(F)cc1Cl`, with 138 to 146 °C. Regarding `CCOC(=O)CCCn1c(C(=O)O)cc2cc(C)ccc21`, the melting point came to 142 °C. Then `CC(=CC(NC=O)C(=O)OCc1ccccc1)CP(=O)(OC(C)C)OC(C)C` (centres undefined), with 50 to 58 °C; and `Cc1csc(NC(=S)Nc2cc(Cl)ccc2C)n1`, with 188 °C; and `CCOC(=O)Cn1c(=O)c2cc(Cl)ccc2n(Cc2ccc(Cl)cc2)c1=O`, with 137 to 138 °C. Then `COc1ccccc1OC(=O)c1ncn2c1[C@@H]1CCCN1C(=O)c1c(Cl)cccc1-2`, with 205 to 206 °C.
